The values below come from patent US8168645B2, “Arylsulfonamide compounds” (Genentech, Inc., priority 2006, dated 2012).

Assay [1] deals with SCLC cell line NCI-H889. Briefly: CellTitre-Glow luminescent cytotoxicity assay, NCI-H889. The class given is cell-based. The settings on record: Homo sapiens; NCI-H889 cells, 48 hr incubation. On the procedure:
(§1) • 1. SCLC cell lines NCI-H889, NCI-H1963, and NCI-H146 were purchased from American Type Culture Collection. Cells were maintained in RPMI 1640 (Invitrogen Corp., Grand Island, N.Y.) supplemented with 10% fetal bovine serum (FBS, Invitrogen), 1% sodium pyruvate, 25 mM HEPES, 4.5 g/L glucose and 1% penicillin/streptomycin (Sigma) in a humidified chamber at 37° C. containing 5% CO2. • 2. cells were grown as suspension aggregates in a T162 flask with 25 ml medium and kept at concentration of 1 million/mL. Test Compound Stocks: • 1. test compounds were prepared as 10 mM stocks in DMSO and stored at −20° C. Test Compound Serial Dilutions: • 1. prewarmed medium to 37° C. • 2. thawed compounds to room temperature. • 3. determined what will be the highest concentration to be tested. (i.e. 10 μM). • 4. prepared a 2× stock in culture medium of the first dose (i.e. 2×10 μM=20 μM) in an Eppendorf tube (i.e. 4 μl of 5 mM stock into 1000 μl=20 μM). • 5. inverted tube several times to mix. […] Columns 1-10 comprised the serial test compound treatments, column 11 was the untreated control and column 12 was the ‘no cell’ control for determining the background. • 1. in a 96 well plate was added 50 μl medium/well in columns 2 thru 11 and 100 μl was added to column 12. • 2. in column 1 was added 100 μl of 2× compound. • 3. made serial dilutions by transferring 50 μl to column 2, and so on up to column 10. After adding 50 μl to column 10 and mixing, discarded 50 μl. • 4. stored plates at 37° C. until ready to add cells. Cell Preparation • 1. Cell were washed one time in the culture medium and prepared as a suspension. • a. cell were first spun down to remove the medium and then ˜1 ml 0.25% trypsin was added and gently mixed and incubated for no more than three minutes at room temperature. • b. ˜10 ml of the medium was added and the cells were gently pipetted several times. • c. cells were then counted and spun down to the volume necessary for the total cell number needed, then resuspended in the medium to 200 cells/μl concentration (50,000 cells/well). • 2. […]

The subject of assay [2] is mouse embryo fibroblasts (MEFs): wild type, Bax/Bak double knockout, Noxa-expressing, Bad-expressing. Briefly: Cell viability assay on mouse embryo fibroblasts (propidium iodide uptake). Format: cell-based. The settings on record: propidium iodide uptake after 24 hours, FIG. 1A/1B. The procedure: FIG. 1 graphically depicts the effect of Compound 1 (FIG. 1A) and Etoposide (FIG. 1B), at increasing concentrations, on the % viability of certain mouse embryo fibroblast (MEF) cells as assessed by propidium iodide uptake after 24 hours. Noxa and Bad were introduced by retrovirally infecting the cells with pMIG retroviruses as described by Chen et al., 2005.
The efficacy of the compounds of the present invention can also be determined in cell based killing assays using a variety of cell lines and mouse tumor models. For example, their activity on cell viability can be assessed on a panel of cultured tumorigenic and non-tumorigenic cell lines, as well as primary mouse or human cell populations, e.g. lymphocytes. For these assays, 5,000-20,000 cells are cultured at 37° C. and 10% CO2 in appropriate growth media, eg: 100 μL Dulbecco's Modified Eagle's medium supplemented with 10% foetal calf serum, asparaginase and 2-mercaptoethanol in the case of pre-B Eμ-Myc mouse tumors in 96 well plates. […] Cell viability is determined by the ability of the cells to exclude propidium iodide (10 μg/mL by immunofluorescence analysis of emission wavelengths of 660-675 nm on a flow cytometer (BD FACScan). Alternatively, a high throughput calorimetric assay such as the Cell Titre 96 could be used. Aqueous Non-Radioactive Cell Proliferation Assay (Promega) may be used. Cell death by apoptosis is confirmed by pre-incubation of the cells with 50 μM of a caspase inhibitor such as zVAD-fmk.
Neutralisation of both Bcl-xL and Mcl-1 anti-apoptotic proteins in normal cells is required before a cell undergoes apoptosis via the downstream Bax/Bak pathway [Chen et al., 2005; Willis et al., 2005]. A compound that only targets Bcl-xL should not affect normal cells, but could kill certain cancer cells if they rely more on Bcl-xL and less on Mcl-1 for survival. To mirror this, compound 1 was tested for its effect on survival of wild type (wt) mouse embryo fibroblasts (MEFs), Bax/Bak double knockout (BB DKO) MEFs, MEFs that expressed Noxa, and MEFs that expressed Bad. Noxa specifically neutralizes Mcl-1.

Assay [3] has as its target GST tagged BCl-xL ΔC25 protein (Homo sapiens, UniProt Q07817). In words: Alphascreen competition binding assay, GST tagged Bcl-xL vs biotinylated Bim BH3-26 peptide. The settings on record: competition with Bim BH3-26 peptide; unit inferred. The source says: (§2) Measurement of competition of compounds of the invention with Bim26-mer for a Bcl-2 homologue binding site.
(§3) Alphascreen (Amplified Luminescent Proximity Homogenous Assay) is a bead based technology which measures the interaction between molecules. The assay consists of two hydrogel coated beads which, when bought into close proximity by a binding interaction, allow the transfer of singlet oxygen from a donor bead to an acceptor bead.
(§4) Upon binding and excitation with laser light at 680 nm, a photosensitizer in the donor bead converts ambient oxygen to a more excited singlet state. This singlet oxygen then diffuses across to react with a chemiluminescer in the acceptor bead. Fluorophores within the same bead are activated resulting in the emission of light at 580-620 nm.
(§5) Screening of the compounds of the invention was performed using the Alphascreen GST (glutathione s-transferase) detection kit system. Test compounds were titrated into the assay which consisted of GST tagged Bclw ΔC29 protein (0.05 nM Final concentration) and Biotinylated Bim BH3-26 peptide, Biotin-[…] (3.0 nM Final concentration). For the GST tagged BCl-xL assay, GST tagged BCl-xL ΔC25 protein (0.6 nM Final concentration) and Biotinylated Bim BH3-26 peptide, Biotin-[…] (5.0 nM final concentration) were used. To this reaction mix anti-GST coated acceptor beads and Streptavidin coated donor beads, both at 15 μg/ml Final concentration, were added and the assay mixture incubated for 4 hours at room temperature before reading. Similarly when the Bcl-2 protein was Mcl-1, GST tagged Mcl-1 protein (0.4 nM Final concentration) and Biotinylated Bak BH3 peptide, Biotin-[…]-OH (4.0 nM Final concentration) were used.
(§6) • 1) prepare a 384 well with 4.75 μL of buffer and 0.25 μL of compounds (20 mM in DMSO) per well. • 2) Mix the binding partners, in one tube add Bcl-w, BCl-xL or Mcl-1 and the acceptor beads, in the second tube add Biotinylated BH3 peptide and the donor beads. • 3) Pre-incubate the two pairs of binding partners for 30 minutes. • 4) Add 1 μL of acceptor beads:Bcl-w, BCl-xL or Mcl-1 protein mix to each well. • 5) Seal the plate and incubate at room temperature for 30 minutes. • 6) Add 10 μL of donor bead:BH3 peptide mix to each well. • 7) Seal the plate, cover with foil and incubate for 4 hours.
(§7) Assay buffer contained 50 mM Hepes pH 7.4, 10 mM DTT, 100 mM NaCl, 0.05% Tween and 0.1 mg/ml casein. Bead dilution buffer contained 50 mM Tris, pH 7.5, 0.01% Tween and 0.1 mg/ml casein. The final DMSO concentration in the assay was 0.5%. Assays were performed in 384 well white Optiplates and analyzed on the PerkinElmer Fusion alpha plate reader (Ex680, Em520-620 nM).
(§8) The GST Alphascreen detection kit and Optiplates were purchased from PerkinElmer.
For orientation: Bead proximity is the source of the signal in Alpha formats.

Assay [4] deals with SCLC cell line NCI-H1963. Briefly: CellTitre-Glow luminescent cytotoxicity assay, NCI-H1963. The class given is cell-based. The settings on record: Homo sapiens; NCI-H1963 cells, 48 hr incubation. The procedure:
as §1

Assay [5] has as its system SCLC cell line NCI-H146. In words: CellTitre-Glow luminescent cytotoxicity assay, NCI-H146. The class given is cell-based. The settings on record: Homo sapiens; NCI-H146 cells, 48 hr incubation. On the procedure: as §1
The target of assay [6] is GST tagged Mcl-1 protein (Homo sapiens, UniProt Q07820). In words: Alphascreen competition binding assay, GST tagged Mcl-1 vs biotinylated Bak BH3 peptide. Particulars: competition with Bak BH3 peptide; unit inferred.
From the text: as §2, §3, §4, §5, §6, §7, §8

GST tagged Mcl-1 protein, sequence (Q07820 whole entry): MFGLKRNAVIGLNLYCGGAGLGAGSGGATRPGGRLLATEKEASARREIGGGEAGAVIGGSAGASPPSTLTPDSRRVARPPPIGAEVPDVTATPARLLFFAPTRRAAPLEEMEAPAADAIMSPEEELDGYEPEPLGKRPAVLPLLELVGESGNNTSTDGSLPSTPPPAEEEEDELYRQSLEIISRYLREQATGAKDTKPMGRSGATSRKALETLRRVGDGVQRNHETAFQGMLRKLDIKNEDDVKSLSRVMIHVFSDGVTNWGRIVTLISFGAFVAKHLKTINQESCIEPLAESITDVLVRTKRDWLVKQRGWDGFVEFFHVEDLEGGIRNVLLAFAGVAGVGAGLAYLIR
GST tagged BCl-xL ΔC25 protein, sequence (Q07817 1-208 limits assumed): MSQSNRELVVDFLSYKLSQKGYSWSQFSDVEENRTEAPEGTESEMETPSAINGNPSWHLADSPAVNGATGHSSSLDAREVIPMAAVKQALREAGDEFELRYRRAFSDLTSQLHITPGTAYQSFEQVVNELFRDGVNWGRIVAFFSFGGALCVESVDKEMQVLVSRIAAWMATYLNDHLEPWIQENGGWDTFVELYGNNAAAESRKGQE

Turning to `CN(C)CC[C@H](CSc1ccccc1)Nc1ccc(S(=O)(=O)Nc2ncnc3cc(N4CCN(Cc5ccccc5-c5ccc(Cl)cc5)CC4)ccc23)cc1[N+](=O)[O-]` [Compound 1, N-{7-[4-(4′-Chloro-biphenyl-2-ylmethyl)-piperazin-1-yl]-quinazolin-4-yl}-4-((R)-3-dimethylamino-1-phenylsulfanylmethyl-propylamino)-3-nitro-benzenesulfonamide], the values for the EC50 in assay [1], in assay [4] and in assay [5] were 0.21 µM, 0.17 µM and 0.61 µM, respectively. In assay [2], the “Selectivity of killing of Noxa-expressing MEFs versus MEFs where both Bcl-xL and Mcl-1 are protective (% viability)” value is given as “much more sensitive to killing”. For the same compound, the results for the IC50 in assay [3] and in assay [6] were 0.007 µM and 9 µM, respectively.

The term EC50 denotes the concentration that produces a half-maximal response. A high value points to a need for much substance. A word on the IC50: it is the concentration at which inhibition is half-maximal. The low end stands for greater potency, the high end for weaker potency.
